In patent publication US20120107323A1, “KINASE PROTEIN BINDING INHIBITORS” (University of Florida, priority 2009, published 2012):

How the values were obtained:
[1] = test system: Miapaca-2 pancreatic cancer cells; assay: Cell viability (MTT), Miapaca-2; type: cell-based
Description: Cell viability (MTT) and CFSE Proliferation assay: Cells were plated in 96-well plates and let adhere overnight. After cell treatment, cell viability was measured by 3-(4,5-dimethylthiazol-2-yl)-2,5-diphenyl tetrazolium bromide (MTT) assay (CellTiter 96® Aqueous, Promega, Madison, Wis.).
Cell viability and detachment assays: After cells were treated with siRNA transfection, cell viability was measured by 3-(4,5-dimethylthiazol2-yl)-2,5-diphenyl tetrazolium bromide (MTT) assay (CellTiter 96® AQueous, Promega, Madison, Wis.). Briefly, 20 μl of the tetrazolium compound was added to each well. The cells were then incubated at 37° C. for 1 h. The plate was read at 490 nm with a plate reader to determine the viability. In detachment assays, detached and attached cells were harvested separately and counted in a hemocytometer. The percentage of detachment was calculated by dividing the number of detached cells by the total number of cells. Apoptosis assays: After treatment, attached and detached cells were collected, counted and prepared for terminal uridine deoxynucleotidyl transferase (TUNEL) assay by utilizing an APO-BRDU kit (BD Pharmingen, San Diego, Calif.) according to the manufacturer's instructions. Stained cells were analyzed with a fluorescence-activated cell sorting-Calibur flow cytometer (BD Biosciences). […] Apoptotic cells were also analyzed by Hoechst staining. […]

[2] = test system: esophageal patient #5 adenocarcinoma tumor; assay: Esophageal patient #5 xenograft; type: in vivo, mice
Description: For tumor samples from human patients with esophageal or pancreatic cancer, the University of Florida IACUC approved the following protocol (IACUC Study #2000902767). A total of 25 patients, 10 with pancreatic cancer and 15 with esophageal cancer have been identified and implanted into nude mice. Initially small pieces (0.3×0.3×0.3 cm) from fresh pancreatic and esophageal human tumor samples were obtained from surgical specimens of patients operated at the University of Florida Shands Hospital, and implanted subcutaneously in-group of 2 mice for each patient. For esophageal cancer specimens, when one of them has reached 1.5 cc, it was excised and was cut into small pieces of (0.3×0.3×0.3 cm), and transplanted subcutaneously into another 10 mice. When tumors reached ˜100 mm^3, mice were randomized in the following 2 groups, with 5 mice in each group: • Group 1: Control: no treatment. • Group 2: INT2-31 (Compound 31): 50 mg/kg/day in 50 μL by i.p administration for 21 days.
Mice were euthanized 30-40 days after tumor innoculation and tumor and tissue collected. For inhibition of tumor growth in our subcutaneous model, tumor volumes (length×width×height×p/6) and body weights were determined daily including weekends and holidays, to monitor tumor growth and evaluate overall clinical condition, taking into account weight loss and indications of pain, distress, or abnormal behavior and physiology. Experiments were terminated when the mean control tumor volume was 1.5 cc (approximately 30-40 days).
Immunohistochemistry: Xenograft tumor tissue was fixed in 10% formalin and embedded in paraffin. For Ki-67 staining, samples underwent deparaffinization and antigen retrieval and incubated with the primary antibody, Ki-67 (Dako M7240), at 1:200 concentration overnight at 4° C. The tissues were stained with the chromogen DAB and counterstained with hematoxylin and 1% TBS.
Subsequently, we evaluated the inhibition of in vivo tumor growth of esophageal patient #5 specimen was evaluated. […]

In the case of `CSc1ncnc2c1ccn2C1O[C@H](COP(=O)(O)O)[C@@H](O)[C@H]1O` (stereo partly drawn) [INT2-31, 4-(Methylthio)-7-(5-O-phosphono-D-ribofuranosyl)-{7H-Pyrrolo[2,3-d]pyrimidine}], the IC50 ([1]; Homo sapiens, MIA PaCa-2, Miapaca-2, 72 hours, read-out: IC50 of INT2-31, cell viability) is reported as 4.73 µM, the “cell viability (in words)” value ([1]; MiaPaCa-2, 72 hours) is reported as “inhibits the cell viability” and the “body weights between animals in each group” value ([2]; 50 mg/kg daily intraperitoneal) is reported as “no significant difference”. For the same compound, the “tumor growth compared to PBS control” value ([2]; 50 mg/kg daily intraperitoneal, 21 days, p<0.05) was “significant decrease” and the “percent of cells reactive to Ki67” value ([2]; 50 mg/kg vs PBS group) was “significantly decreased”.
